# Data as given in US11787810B2, “Diacylglyceride O-acyltransferase 2 inhibitors” (Merck Sharp & Dohme Corp., priority 2020, dated 2023).
# Target: human DGAT2 (hDGAT2) (Homo sapiens (Human), UniProt Q96PD7)
# Assay: DGAT2 enzymatic activity assay (13C18-triolein formation, LC/MS/MS)
# Format: biochemical
# Details: hDGAT2 Sf-9 membrane prep, 25 μM diolein, 5 μM 13C oleoyl-CoA; read-out: Human DGAT2 IC50
# Experimental: Sf-9 insect cells were maintained in Grace's insect cell culture medium with 10% heated-inactivated fetal bovine serum, 1% Pluronic F-68 and 0.14 μg/ml Kanamycine sulfate at 27° C. in a shaker incubator. After infection with untagged baculovirus expressing human DGAT2 (hDGAT2) at multiplicity of infection (MOI) 3 for 48 hours, cells were harvested. Cell pellets were suspended in buffer containing 10 mM Tris-HCl pH 7.5, 1 mM EDTA, 250 mM sucrose and Complete Protease Inhibitor Cocktail (Sigma Aldrich), and sonicated on ice. Cell debris were removed by centrifugation at 2000×g for 15 minutes. Membrane fractions were isolated by ultracentrifugation (100,000×g), resuspended in the same buffer, and frozen (−80° C.) for later use. The protein concentration was determined with the Pierce™ BCA Protein Assay Kit (Thermo Fisher Scientific). Expression of protein levels was analyzed by immunoblotting with rabbit anti-DGAT2 antibody (Abcam, ab102831) and donkey anti-rabbit IgG H&L Alexa Fluor® 647 (Abcam, ab150075) followed by detection using Typhoon FLA9000 (GE Healthcare).
# LC/MS/MS analyses were performed using Thermal Fisher's LX4-TSQ Vantage system. This system consists of an Agilent binary high-performance liquid chromatography (HPLC) pumps and a TSQ Vantage triple quadrupole MS/MS instrument. For each sample, 2 μL samples from the top organic layer of in-plate liquid-liquid extraction were injected onto a Thermo Betabasic C4 column (2.1 mm×20 mm, 5 μm particle size). The samples were then eluted using the following conditions; mobile phase: Isopropanol:acetonitrile/10 mM ammonium formate=50/35/15 (v/v/v), flow rate: 0.8 mL/min, temperature: 25° C. Data was acquired in positive mode using a heated electrospray ionization (HESI) interface. The operational parameters for the TSQ Vantage MS/MS instrument were a spray voltage of 3000 V, capillary temperature of 280° C., vaporizer temperature 400° C., sheath gas 45 arbitrary unit, Aux gas 10 arbitrary units, S-lens 165 and collision gas 1.0 mTorr. […] (SRM) chromatograms of ^13C18-triolein (Q1: 920.8>Q3:621.3) and internal standard ^13C21-triolein (Q1: 923.8>Q3:617.3) were collected for 33 sec. The peak area was integrated by Xcalibur Quan software. The ratio between the ^13C18triolein generated in the reaction and spiked in internal standard ^13C21-triolein was used to generate percentage inhibition and IC50 values. Compound percentage inhibition was calculated by the following formula: Inhibition %=1-[(compound response−low control)/(high control−low control)]×100%. Potent compounds were titrated and IC50 were calculated by 4 parameter sigmoidal curve fitting formula.
# DGAT2 activity was determined by measuring the amount of enzymatic product ^13C18-triolein (^13C-1,2,3-Tri(cis-9-octadecenoyl)glycerol) using the membrane prep mentioned above. The assay was carried out in ABgene 384-well assay plates in a final volume of 25 μL at rt. The assay mixture contained the following: assay buffer (100 mM Tris·Cl, pH 7.0, 20 mM MgCl2, 5% ethanol), 25 μM of diolein, 5 μM of ^13C oleoyl-CoA and 8 ng/μL of DGAT2 membrane.
# Chain of human DGAT2 (hDGAT2) (Q96PD7 whole entry): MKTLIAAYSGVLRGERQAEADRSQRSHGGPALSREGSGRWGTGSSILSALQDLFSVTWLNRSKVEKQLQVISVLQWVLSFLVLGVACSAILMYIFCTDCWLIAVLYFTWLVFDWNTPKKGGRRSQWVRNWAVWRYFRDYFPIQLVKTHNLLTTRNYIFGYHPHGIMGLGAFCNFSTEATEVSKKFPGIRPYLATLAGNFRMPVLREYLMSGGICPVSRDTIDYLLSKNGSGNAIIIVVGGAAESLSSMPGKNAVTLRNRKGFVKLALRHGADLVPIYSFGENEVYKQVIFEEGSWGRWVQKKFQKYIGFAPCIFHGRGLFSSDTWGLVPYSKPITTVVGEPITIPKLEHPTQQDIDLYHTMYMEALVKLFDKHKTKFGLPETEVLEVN
row,Compound,IC50 [µM]
1,"CC1(NC(=O)c2cnc3c(-c4cccc(OC(F)F)c4)nn(C4CCOC(C)(C)C4)c3c2)CS(=O)(=O)C1 (single isomer, unassigned) [Example 77a, 3-(3-(difluoromethoxy)phenyl)-1-(2,2-dimethyltetrahydro-2H-pyran-4-yl)-N-(3-methyl-1,1-dioxidothietan-3-yl)-1H-pyrazolo[4,3-b]pyridine-6-carboxamide]",0.14
2,"CC(C)n1nc(-c2cccc(OC(F)F)c2)c2ncc(C(=O)NC3(C(C)O)CCOC3)cc21 (single isomer, unassigned) [Example 50b, 3-(3-(difluoromethoxy)phenyl)-N-(3-(1-hydroxyethyl)tetrahydrofuran-3-yl)-1-isopropyl-1H-pyrazolo[4,3-b]pyridine-6-carboxamide]",0.031
3,"CC1(NC(=O)c2cnc3c(-c4cccc(OC(F)F)c4)nn(C(C)(C)C(C)(C)O)c3c2)CS(=O)(=O)C1 [Example 129, 3-(3-(difluoromethoxy)phenyl)-1-(3-hydroxy-2,3-dimethylbutan-2-yl)-N-(3-methyl-1,1-dioxidothietan-3-yl)-1H-pyrazolo[4,3-b]pyridine-6-carboxamide]",0.097
4,"CC(C)n1nc(-c2cccc(OC(F)F)c2)c2ncc(C(=O)NC(C)(C)CO)cc21 [Example 42, 3-(3-(difluoromethoxy)phenyl)-N-(1-hydroxy-2-methylpropan-2-yl)-1-isopropyl-1H-pyrazolo[4,3-b]pyridine-6-carboxamide]",0.038
5,"CC1(NC(=O)c2cnc3c(-c4cccc(OC(F)F)c4)nn(C4CCOC(C(F)(F)F)C4)c3c2)CS(=O)(=O)C1 (single isomer, unassigned) [Example 76b, 3-(3-(difluoromethoxy)phenyl)-N-(3-methyl-1,1-dioxidothietan-3-yl)-1-(2-(trifluoromethyl)tetrahydro-2H-pyran-4-yl)-1H-pyrazolo[4,3-b]pyridine-6-carboxamide]",0.211
6,"CC(C)n1nc(-c2cccc(OC(F)F)c2)c2ncc(C(=O)NC3(C(C)O)CCOC3)cc21 (single isomer, unassigned) [Example 50c, 3-(3-(difluoromethoxy)phenyl)-N-(3-(1-hydroxyethyl)tetrahydrofuran-3-yl)-1-isopropyl-1H-pyrazolo[4,3-b]pyridine-6-carboxamide]",0.108
7,"CC(C)n1nc(-c2cccc(OC(F)F)c2)c2ncc(C(=O)NC3(CO)CCOC3)cc21 (single isomer, unassigned) [Example 39a, 3-[3-(difluoromethoxy)phenyl]-N-[3-(hydroxymethyl)tetrahydrofuran-3-yl]-1-isopropyl-pyrazolo[4,3-b]pyridine-6-carboxamide]",0.019
8,"C[C@]1(NC(=O)c2cnc3c(-c4cccc(OC(F)F)c4)nn(C4CCOC4)c3c2)CCS(=O)(=O)C1 (single isomer, unassigned) [Example 60a]",0.6
9,"CCC(C)n1nc(-c2cccc(OC(F)F)c2)c2ncc(C(=O)NC3(C)CS(=O)(=O)C3)cc21 (single isomer, unassigned) [Example 66b, 3-[3-(difluoromethoxy)phenyl]-N-(3-methyl-1,1-dioxo-thietan-3-yl)-1-sec-butyl-pyrazolo[4,3-b]pyridine-6-carboxamide]",0.0015
10,"CC1(NC(=O)c2cnc3c(-c4cccc(OC(F)F)c4)nn(C4CCOC(C)(C)C4)c3c2)CS(=O)(=O)C1 (single isomer, unassigned) [Example 77b, 3-(3-(difluoromethoxy)phenyl)-1-(2,2-dimethyltetrahydro-2H-pyran-4-yl)-N-(3-methyl-1,1-dioxidothietan-3-yl)-1H-pyrazolo[4,3-b]pyridine-6-carboxamide]",0.0074
11,"CN1CCC(n2nc(-c3cccc(OC(F)F)c3)c3ncc(C(=O)NC4(C)CS(=O)(=O)C4)cc32)CC1 [Example 134, 3-(3-(Difluoromethoxy)phenyl)-N-(3-methyl-1,1-dioxidothietan-3-yl)-1-(1-methylpiperidin-4-yl)-1H-pyrazolo[4,3-b]pyridine-6-carboxamide]",0.033

# The next lines start with the values.
row,IC50 [µM],Compound
1,0.27,"CC1(C#N)CC(n2nc(-c3cccc(OC(F)F)c3)c3ncc(C(=O)NC4(C)CS(=O)(=O)C4)cc32)C1 (single isomer, unassigned) [Example 87b, 1-(3-cyano-3-methylcyclobutyl)-3-(3-(difluoromethoxy)phenyl)-N-(3-methyl-1,1-dioxidothietan-3-yl)-1H-pyrazolo[4,3-b]pyridine-6-carboxamide]"
2,0.05,"CC(C)n1cc(-c2cccc(OC(F)F)c2)c2ncc(C(=O)NC3(C)CS(=O)(=O)C3)cc21 [Example 37, 3-(3-(difluoromethoxy)phenyl)-1-isopropyl-N-(3-methyl-1,1-dioxidothietan-3-yl)-1H-pyrrolo[3,2-b]pyridine-6-carboxamide]"
3,0.016,"CC1(NC(=O)c2cnc3c(-c4cccc(OC(F)F)c4)nn([C@@H]4COC[C@H]4O)c3c2)CS(=O)(=O)C1 (single isomer, unassigned) [Example 53a, 3-(3-(difluoromethoxy)phenyl)-1-((trans)-4-hydroxytetrahydrofuran-3-yl)-N-(3-methyl-1,1-dioxidothietan-3-yl)-1H-pyrazolo[4,3-b]pyridine-6-carboxamide]"
4,0.059,"C[C@]1(NC(=O)c2cnc3c(-c4cccc(OC(F)F)c4)nn(C4CCCOC4)c3c2)CCS(=O)(=O)C1 (single isomer, unassigned) [Example 62a]"
5,2.73,"CC(O)C(C)NC(=O)c1cnc2c(-c3cccc(OC(F)F)c3)nn(C(C)C)c2c1 (single isomer, unassigned) [Example 45d, 3-(3-(difluoromethoxy)phenyl)-N-(3-hydroxybutan-2-yl)-1-isopropyl-1H-pyrazolo[4,3-b]pyridine-6-carboxamide]"

# Same assay, conditions: table head without 'Human'; same membrane assay; read-out: DGAT2 IC50
row,Compound,IC50 [µM]
1,"CC(n1nc(-c2cccc(OC(F)F)c2)c2ncc(C(=O)NC3(C)CS(=O)(=O)C3)cc21)C(C)(C)O (single isomer, unassigned) [Example 130b, 3-(3-(difluoromethoxy)phenyl)-1-(3-hydroxy-3-methylbutan-2-yl)-N-(3-methyl-1,1-dioxidothietan-3-yl)-1H-pyrazolo[4,3-b]pyridine-6-carboxamide]",0.08
2,"CC(n1nc(-c2cc(OC(F)F)ccc2F)c2ncc(C(=O)NC3(C)CS(=O)(=O)C3)cc21)C(C)(C)O (single isomer, unassigned) [Example 131b, 3-(5-(difluoromethoxy)-2-fluorophenyl)-1-(3-hydroxy-3-methylbutan-2-yl)-N-(3-methyl-1,1-dioxidothietan-3-yl)-1H-pyrazolo[4,3-b]pyridine-6-carboxamide]",0.11
3,"CC(n1nc(-c2cc(OC(F)(F)F)ccc2F)c2ncc(C(=O)NC3(C)CS(=O)(=O)C3)cc21)C(C)(C)O (single isomer, unassigned) [Example 132b, 3-(2-fluoro-5-(trifluoromethoxy)phenyl)-1-(3-hydroxy-3-methylbutan-2-yl)-N-(3-methyl-1,1-dioxidothietan-3-yl)-1H-pyrazolo[4,3-b]pyridine-6-carboxamide]",0.215
